Reference: patent US9549909B2, “Method for the treatment of dravet syndrome” (KATHOLIEKE UNIVERSITEIT LEUVEN, priority 2013, dated 2017)

What was measured:
heart valve = assay: Echocardiography monitoring for heart valve defects in subjects treated with fenfluramine; assay type: in vivo, human
Text: The subjects treated with fenfluramine were monitored using echocardiography for possible heart valve defects.

refractory epilepsy = settings: children with refractory epilepsy; dose of 0.5 to 1 mg/kg/day; cited from earlier work
[1] = tested on: seizures in Dravet Syndrome patients; assay: Long-term fenfluramine and valproate treatment of Dravet Syndrome patients (Ceulemans et al. data); assay type: in vivo, human
Text: The following table provides results based on the data presented in Ceulemans et al., Epilepsia (2012) 53(7):1131-1139.

[2] = tested on: self-induced photosensitive seizures; settings: cited from earlier work
[3] = tested on: seizures in Dravet Syndrome patients; settings: Combined STICLO-France and Italy; stiripentol and either valproate or clobazam; two months; cited from earlier work
[4] = fenfluramine and valproate, average daily dose 0.34 mg/kg/day for between 1 and 22 years, 0.34 mg/kg/day

SMILES	Heart valve defects by echocardiography (heart valve)	Effect on number of seizures (refractory epilepsy)	Types of seizures reduced ([1]; Dravet Syndrome patients, not only photosensitive or self-induced seizures)	>50% Reduction in Seizures (responders) [1, 4] [%]	Seizure-free Patients [1, 4] [%]	Response of self-induced photosensitive seizures ([2]; four cases, Aicardi and Gastaut)	Effect on pattern sensitivity-induced seizures resistant to anticonvulsive treatment ([2]; one child, Clemens 1988)	Responders - >50% Reduction in the Number of Seizures [3] [%]	Seizure Free Patients [3] [%]
CCNC(C)Cc1cccc(C(F)(F)F)c1 (stereo not drawn) [Fenfluramine, 3-trifluoromethyl-N-ethylamphetamine]	No clinically relevant defects were identified	reduction in the number of seizures	effectively reduced the incidence of all types of seizures	75	66.6	responded to treatment	successfully terminated these self-induced seizures		
CC(C)(C)C(O)/C=C/c1ccc2c(c1)OCO2 (stereo not drawn) [Stiripentol]								69.7	38.7
